Experimental data as given in patent publication US20090192097A1, “Synergistic Herbal Composition from Bacopa Species for Management of Neurodegenerative Disorders and a Process of Preparation Thereof” (priority 2006, published 2009).

Assays:
albino Swiss mice [1] = experiment: Passive avoidance test in mice; type: in vivo, mouse; conditions: compared to the vehicle control; BacoMind 40, 60 and 80 mg/kg p.o. 7 days; piracetam 100 mg/kg i.p.; scopolamine 0.3 mg/kg i.p.
Description: (§1) Forty two albino Swiss mice (20-22 g) of either sex obtained from National Toxicology Centre, Pune were used for the study. The animals were acclimatized for a week and maintained under standard laboratory conditions, given free access to feed (Source: Laboratory prepared) and water, ad libitum.
Six albino Swiss mice of either sex were randomly allotted to each group. Group I served as the vehicle control. Group II, III and IV received BacoMind™ orally at the doses of 40, 60 and 80 mg/kg for 7 days. Piracetam was administered to group V (100 mg/kg, i.p, single dose, on 7th day 20 min before first trial) and served as the reference standard control. Group VI was administered with scopolamine (0.3 mg/kg, i.p, single dose, on 7th day 20 min before first trial) and served as the amnesia control. Group VII was administered both with BacoMind™ (60 mg/kg, p.o, for 7 days) and scopolamine (0.3 mg/kg, i.p, single dose, on 7th day 30 min after BacoMind™ treatment). Mice were placed individually on the electric grid and allowed to explore for one minute. A stimulus of 20 V with AC current of 5 mA was given and latency to reach SFZ was recorded for three consecutive times and considered as basal reading. After 1 h of the first trial, each animal was placed on the electric grid again and the latency to reach SFZ and the mistakes (descents) the animal made in 15 min were recorded and considered as parameters for acquisition and retention respectively.

albino Swiss mice [2] = experiment: Elevated plus maze (EPM) test in mice; type: in vivo, mouse; conditions: scopolamine 0.3 mg/kg i.p. single dose, compared to the vehicle control
Description: as §1
Six albino Swiss mice of either sex were randomly allotted to each group. Group I served as the vehicle control. […] Piracetam was administered to group V (100 mg/kg, i.p, single dose on 7th day, 30 min before recording transfer latency) and served as the reference standard control. Group VI was administered with scopolamine (0.3 mg/kg, i.p, single dose on 7th day, 30 min before recording transfer latency) and served as the amnesia control group. […] The mice were placed individually at the end of open arm of the EPM facing away from the center. The time taken by the mouse to move into the enclosed arm was noted as transfer latency (TL). The mice were treated with the test substance/drugs as shown in the study design. […] After determination of the TL, mice were allowed to explore the maze for 2 min and then transferred to their home cages. The TL was again measured after 24 h i.e on […]. The TL was expressed as inflexion ratio.

SMILES | latency to reach SFZ (albino Swiss mice [1]) | number of mistakes in 15 min (albino Swiss mice [1]) | inflexion ratio (albino Swiss mice [2])
NC(=O)CN1CCCC1=O [piracetam, Piracetam] | significantly decreased | significantly decreased | –
CN1[C@@H]2C[C@@H](OC(=O)[C@H](CO)c3ccccc3)C[C@H]1[C@@H]1O[C@@H]12 [scopolamine] | significant increase | – | significant decrease
